Measurements reported in DBAASP.
In brackets after ≈: the same amount, converted by molar mass.

Legend:
Test in all cases: ≥ marks a high value that may be exact or a test limit, other limits are often not marked, values filed in µg/mL are converted to µM
Escherichia coli BL21 = test system: Escherichia coli BL21
[1] = test system: Streptococcus pyogenes M1T1 5448
[2] = test system: Pseudomonas aeruginosa PAO1
[3] = test system: Staphylococcus aureus USA 300
[4] = test system: Escherichia coli LMG 15862
[5] = test system: Pseudomonas aeruginosa LMG 6395
[6] = test system: Klebsiella pneumoniae LMG 20218
[7] = test system: Acinetobacter baumannii LMG 01041
[8] = test system: Klebsiella aerogenes LMG 02094
Staphylococcus aureus = test system: Staphylococcus aureus
[9] = test system: Bifidobacterium longum subsp. infantis
Escherichia coli = test system: Escherichia coli
Staphylococcus aureus MR = test system: Staphylococcus aureus MR
Candida albicans = test system: Candida albicans
[10] = test system: Pseudomonas aeruginosa ATCC 27853
[11] = test system: Staphylococcus aureus ATCC 49476
[12] = test system: Staphylococcus aureus ATCC 29737
Acinetobacter baumannii = test system: Acinetobacter baumannii
[13] = test system: Escherichia coli ATCC 25922
[14] = test system: Klebsiella pneumoniae ATCC 700603
[15] = test system: Pseudomonas aeruginosa ATCC 9027
Klebsiella pneumoniae = test system: Klebsiella pneumoniae
Phytophthora nicotianae = test system: Phytophthora nicotianae
[16] = test system: Staphylococcus aureus ATCC 25923
[17] = test system: Saccharomyces cerevisiae AS2.430
[18] = test system: Staphylococcus aureus ATCC 29231
[19] = test system: Acinetobacter baumannii ATCC 7978
[20] = test system: Klebsiella pneumoniae WGLW2
[21] = test system: Pseudomonas aeruginosa PA14
[22] = test system: Staphylococcus aureus MW2
[23] = test system: Enterococcus faecium E007
[24] = test system: Acinetobacter baumannii ATCC 19606
[25] = test system: Enterococcus faecium ATCC 19434
[26] = test system: Escherichia coli BW25113 ΔsbmA
[27] = test system: Enterobacter cloacae ATCC 13047
Escherichia coli BW25113 = test system: Escherichia coli BW25113

With CC[C@H](C)[C@H](NC(=O)[C@H](CCCN=C(N)N)NC(=O)[C@H](CCCCN)NC(=O)[C@@H](NC(=O)[C@H](CCCCN)NC(=O)[C@H](CCCN=C(N)N)NC(=O)[C@@H](NC(=O)[C@H](Cc1ccc(O)cc1)NC(=O)[C@H](CCCN=C(N)N)NC(=O)[C@H](CCCN=C(N)N)NC(=O)[C@H](CC(C)C)NC(=O)[C@H](CCC(=O)O)NC(=O)[C@H](CCCCN)NC(=O)[C@H](C)NC(=O)[C@@H](NC(=O)[C@H](CCCN=C(N)N)NC(=O)[C@H](CC(N)=O)NC(=O)[C@@H](NC(=O)CNC(=O)[C@H](C)N)[C@@H](C)O)[C@@H](C)CC)[C@@H](C)CC)C(C)C)C(=O)N[C@@H](C)C(=O)N[C@@H](CCCN=C(N)N)C(=O)N[C@@H](CCCCN)C(=O)N[C@@H](C)C(=O)N[C@@H](Cc1c[nH]c2ccccc12)C(=O)O [AGTNRIAKELRRYIRKVKRIARKAW] the MIC (Escherichia coli BL21) was 0.5 µM (≈ 1.53 µg/mL), the MIC [1] was 1 µM (≈ 3.05 µg/mL) and the MIC [2] was 16 µM (≈ 48.9 µg/mL). It also gave an MIC [3] of 16 µM (≈ 48.9 µg/mL).

Work on CC[C@H](C)[C@H](NC(=O)[C@H](C)N)C(=O)N[C@H](C(=O)N[C@@H](CCC(N)=O)C(=O)N[C@@H](CCCN=C(N)N)C(=O)N[C@H](C(=O)N[C@@H](CCCCN)C(=O)N[C@@H](CCCCN)C(=O)N[C@@H](Cc1c[nH]c2ccccc12)C(=O)N[C@@H](CC(C)C)C(=O)N[C@@H](CCCN=C(N)N)C(N)=O)[C@@H](C)CC)C(C)C [AIVQRIKKWLR] yielded an MIC [4] of 12 µM (≈ 16.9 µg/mL), an MIC [5] of 16 µM (≈ 22.6 µg/mL) and an MIC [6] of 24 µM (≈ 33.8 µg/mL). The MIC [7] was at least 128 µM and the MIC [8] was at least 128 µM.

In the case of CC[C@H](C)[C@H](NC(=O)[C@@H]1CCCN1C(=O)[C@@H](N)CCC(=O)O)C(=O)N1CCC[C@H]1C(=O)N[C@@H](CC(C)C)C(=O)N[C@@H](CCC(=O)O)C(=O)N[C@@H](CO)C(=O)N[C@@H](CCCN=C(N)N)C(=O)N[C@@H](CCC(=O)O)C(=O)N[C@@H](CCC(=O)O)C(=O)O [EPIPLESREE], the MIC (Staphylococcus aureus) was 2090 µM (≈ 2500 µg/mL), the MIC [9] was at least 2500 µM and the MIC (Escherichia coli) was 2090 µM (≈ 2500 µg/mL).

With CC[C@H](C)[C@H](NC(=O)[C@H](CC(C)C)NC(=O)[C@H](CCCN=C(N)N)NC(=O)[C@H](Cc1cnc[nH]1)NC(=O)[C@H](CCC(=O)O)NC(=O)[C@H](C)NC(=O)[C@H](CCCCN)NC(=O)CNC(=O)[C@H](C)NC(=O)[C@H](CO)NC(=O)[C@H](Cc1ccccc1)NC(=O)[C@H](CC(C)C)NC(=O)CNC(=O)CNC(=O)[C@@H](NC(=O)[C@@H](NC(=O)[C@H](Cc1cnc[nH]1)NC(=O)[C@H](Cc1cnc[nH]1)NC(=O)[C@@H](NC(=O)[C@@H](N)Cc1ccccc1)[C@@H](C)CC)[C@@H](C)CC)[C@@H](C)CC)C(=O)N[C@@H](CCCN=C(N)N)C(=O)N[C@@H](CCCN=C(N)N)C(=O)N[C@@H](CCCN=C(N)N)C(=O)N[C@@H](CCCN=C(N)N)C(=O)N[C@@H](CCCN=C(N)N)C(=O)O [FIHHIIGGLFSAGKAEHRLIRRRRR] the MIC (Staphylococcus aureus MR) was at least 171 µM, the MIC (Candida albicans) was 42.7 µM (≈ 128 µg/mL) and the MIC [10] was over 171 µM. For the same compound, the MIC [11] was at least 171 µM.

For CC(C)C[C@H](NC(=O)[C@H](Cc1c[nH]c2ccccc12)NC(=O)[C@@H](NC(=O)[C@H](CC(C)C)NC(=O)[C@@H]1CCCN1C(=O)[C@@H](N)Cc1ccccc1)[C@@H](C)O)C(=O)N[C@@H](CCCCN)C(=O)N[C@@H](Cc1c[nH]c2ccccc12)C(=O)N[C@@H](Cc1c[nH]c2ccccc12)C(=O)N[C@@H](CCCCN)C(=O)N[C@@H](Cc1c[nH]c2ccccc12)C(=O)N[C@@H](CCCCN)C(=O)N[C@@H](CCCCN)C(N)=O [FPLTWLKWWKWKK], the MIC [12] was 8.45 µM (≈ 15.6 µg/mL), the MIC (Acinetobacter baumannii) was 16.9 µM (≈ 31.2 µg/mL) and the MIC [13] was 16.9 µM (≈ 31.2 µg/mL). The MIC [14] was 8.45 µM (≈ 15.6 µg/mL), the MIC [15] was 33.8 µM (≈ 62.5 µg/mL) and the MIC (Klebsiella pneumoniae) was 8.66 µM (≈ 16 µg/mL).

Compound CC[C@H](C)[C@H](NC(=O)CN)C(=O)N[C@@H](Cc1ccccc1)C(=O)N[C@@H](CO)C(=O)N[C@@H](CCCCN)C(=O)N[C@@H](CC(C)C)C(=O)N[C@@H](C)C(=O)NCC(=O)N[C@@H](CCCCN)C(=O)N[C@@H](CCCCN)C(=O)N[C@@H](CC(C)C)C(=O)N[C@@H](CCCCN)C(=O)N[C@@H](CC(N)=O)C(=O)N[C@@H](CC(C)C)C(=O)N[C@@H](CC(C)C)C(=O)N[C@H](C(=O)N[C@@H](CO)C(=O)NCC(=O)N[C@@H](CC(C)C)C(N)=O)[C@@H](C)CC [GIFSKLAGKKLKNLLISGL] has an MIC (Phytophthora nicotianae) of 12 µM (≈ 24 µg/mL).

Compound CC(C)C[C@H](NC(=O)[C@H](CCC(=O)O)NC(=O)[C@@H](N)CCCCN)C(=O)N[C@@H](CCC(=O)O)C(=O)N[C@@H](CCC(=O)O)C(=O)N[C@@H](CCCCN)C(=O)O [KELEEK] has an MIC [16] of 403 µM (≈ 313 µg/mL), an MIC [13] of 807 µM (≈ 625 µg/mL) and an MIC [17] of at least 25800 µM.

In the case of CC[C@H](C)[C@H](NC(=O)[C@H](Cc1c[nH]c2ccccc12)NC(=O)[C@H](CCCCN)NC(=O)[C@@H](N)CC(C)C)C(=O)NCC(=O)N[C@@H](CCCCN)C(=O)N[C@@H](CCCCN)C(=O)N[C@H](C(=O)N[C@@H](Cc1c[nH]c2ccccc12)C(=O)N[C@@H](CCCN=C(N)N)C(=O)N[C@H](C(=O)NCC(=O)O)C(C)C)[C@@H](C)CC [LKWIGKKIWRVG], the MIC [18] was at least 86.3 µM, the MIC [19] was at least 86.3 µM and the MIC [20] was at least 86.3 µM. It also gave an MIC [21] of at least 86.3 µM.

With CC[C@H](C)[C@H](NC(=O)[C@H](Cc1c[nH]c2ccccc12)NC(=O)[C@H](CCCCN)NC(=O)[C@@H](N)CC(C)C)C(=O)NCC(=O)N[C@@H](CCCCN)C(=O)N[C@@H](Cc1c[nH]c2ccccc12)C(=O)N[C@H](C(=O)N[C@@H](Cc1c[nH]c2ccccc12)C(=O)N[C@@H](CCCN=C(N)N)C(=O)N[C@H](C(=O)NCC(=O)N[C@@H](Cc1c[nH]c2ccccc12)C(=O)N[C@@H](CC(N)=O)C(=O)N[C@@H](Cc1c[nH]c2ccccc12)C(=O)N[C@@H](CCCN=C(N)N)C(=O)O)C(C)C)[C@@H](C)CC [LKWIGKWIWRVGWNWR] the MIC [18] was at least 58.6 µM, the MIC [19] was at least 58.6 µM and the MIC [22] was 29.3 µM (≈ 64 µg/mL). For the same compound, the MIC [23] was at least 58.6 µM.

For CC[C@H](C)[C@H](NC(=O)[C@H](CCCN=C(N)N)NC(=O)[C@@H](N)Cc1c[nH]c2ccccc12)C(=O)N[C@@H](CCCN=C(N)N)C(=O)N[C@@H](CCCN=C(N)N)C(=O)N[C@@H](CCCN=C(N)N)C(=O)N[C@@H](Cc1c[nH]c2ccccc12)C(=O)N1CCC[C@H]1C(=O)N[C@@H](CCCN=C(N)N)C(=O)N[C@@H](CC(C)C)C(=O)N1CCC[C@H]1C(=O)N[C@@H](CCCN=C(N)N)C(=O)N1CCC[C@H]1C(=O)N[C@@H](CCCN=C(N)N)C(=O)N[C@@H](Cc1c[nH]c2ccccc12)C(=O)N[C@@H](CCCN=C(N)N)C(=O)O [WRIRRRWPRLPRPRWR], the MIC [16] was 12 µM (≈ 28.1 µg/mL), the MIC [24] was 4 µM (≈ 9.38 µg/mL) and the MIC [25] was at least 32 µM. The MIC [26] was 4 µM (≈ 9.38 µg/mL), the MIC [14] was 2 µM (≈ 4.69 µg/mL) and the MIC [27] was 8 µM (≈ 18.8 µg/mL). It also gave an MIC (Escherichia coli BW25113) of 2 µM (≈ 4.69 µg/mL) and an MIC [10] of 32 µM (≈ 75 µg/mL).
